Test results from patent US11072633B2 (priority 2016, dated 2021).
Read-outs that look alike come from different tables or passages of the source.

Legend:
[1] = in vitro; format: in vitro ADME; settings: human
Experimental: (§1) Caco-2 cells were diluted to 6.86×10^6 cells/mL, dispensed into a 96-well HTS Transwell plate, and cultured for 14 to 18 days. 6-azasteroids at 5 μM was incubated at 37° C. for 2 hours with the Caco-2 cell monolayer in HBSS buffer (10 mM HEPES, pH 7.4) containing 5% BSA. Aliquots from donor sides (apical compartment for Ap→Bl flux, and basolateral compartment for Bl→Ap) and receiver sides (basolateral compartment for Ap→Bl flux, and apical compartment for Bl→Ap) were separated and extracted by acetonitrile or methanol containing appropriate internal standards (IS). The concentration of 6-azasteroid was determined by LC-MS/MS analysis.
(§2) Elution rate: 0.65 mL/min.
(§3) To predict absorption via oral administration, Caco-2 bidirectional permeability assay was performed (Table 8).

[2] = tested on: Caco-2 cell line; assay: in vitro; format: in vitro ADME; settings: human, Caco-2, 2 h, 5 μM, pH 7.4
Experimental: as §1, §2, §3

[3] = in vitro; format: cell-based; settings: human
Experimental: (§4) The cytotoxicity of SB107 was determined by measuring […], THP-1, HepG2, and HK-2 cell viability after 3 days in the presence of SB107 in a 384-well plate format. SB107 was prepared as 10-point serial dilutions in DMSO, with the highest concentration at 30 μM. Assay plates were incubated for 3 days at 37° C., 5% CO2 and relative luminescent units (RLU) were measured using the CellTiter-Glo® Luminescent Cell Viability Assay. The dose response curve was fitted using the Levenberg-Marquardt algorithm.

[4] = Lung tissue distribution
[5] = both, human, microsomes, 2 μM, pH 7.4
[6] = tested on: M. tuberculosis; assay: Minimum Bactericidal Concentration (MBC); format: cell-based; settings: Mycobacterium tuberculosis; INH with 60 μM 107; read-out: MBC of INH
[7] = in vivo; settings: male, CD-1, mouse
[8] = tested on: Mtb; assay: Isoniazid MIC shift on Mtb MIC plates (broth microdilution MIC); format: cell-based, M. tuberculosis
[9] = biological target: T1, CYP2C9 (Homo sapiens, UniProt P11712); assay: in vitro; format: in vitro ADME; settings: both sexes, microsomes, read-out: % Inhibition 2C9
T1 construct: using pooled male and female human liver microsomes; from tissue; host or cells: pooled human liver microsomes
T1 sequence (P11712 whole entry): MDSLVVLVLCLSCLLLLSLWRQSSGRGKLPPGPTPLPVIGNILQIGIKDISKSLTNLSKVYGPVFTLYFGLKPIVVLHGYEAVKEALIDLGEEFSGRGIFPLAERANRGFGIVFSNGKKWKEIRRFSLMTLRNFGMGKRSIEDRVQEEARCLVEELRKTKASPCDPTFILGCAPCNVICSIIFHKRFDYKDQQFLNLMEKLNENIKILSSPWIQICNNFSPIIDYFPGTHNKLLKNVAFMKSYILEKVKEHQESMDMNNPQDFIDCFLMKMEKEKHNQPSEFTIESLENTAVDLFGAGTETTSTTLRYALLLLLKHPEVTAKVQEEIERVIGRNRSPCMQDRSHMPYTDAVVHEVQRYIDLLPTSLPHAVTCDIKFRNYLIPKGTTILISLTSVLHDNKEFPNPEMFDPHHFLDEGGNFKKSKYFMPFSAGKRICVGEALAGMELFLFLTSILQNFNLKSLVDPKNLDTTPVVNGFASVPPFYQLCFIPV
Experimental: (§5) The potential for inhibtion of CYP enzymes (CYP1A2, CYP2A6, CYP2B6, CYP2C8, CYP2C9, CYP2C19, CYP2D6, CYP2E1 and CYP3A4) by 107 at 10 μM were using pooled male and female human liver microsomes, Freshly plated human microsomes with substrate to each CYP enzyme was treated with 107 for 5-20 min. The concentrations of marker metabolites of known substrates were determined by LCMS analysis.
(§6) The inhibition of CYP enzymes by 107 was evaluated in human liver microsomes (Table 11).

[10] = biological target: T2, CYP2E1 (Homo sapiens, UniProt P05181); assay: in vitro; format: in vitro ADME; settings: both sexes, microsomes, read-out: % Inhibition 2E1
T2 construct: using pooled male and female human liver microsomes; from tissue; host or cells: pooled human liver microsomes
T2 sequence (P05181 whole entry): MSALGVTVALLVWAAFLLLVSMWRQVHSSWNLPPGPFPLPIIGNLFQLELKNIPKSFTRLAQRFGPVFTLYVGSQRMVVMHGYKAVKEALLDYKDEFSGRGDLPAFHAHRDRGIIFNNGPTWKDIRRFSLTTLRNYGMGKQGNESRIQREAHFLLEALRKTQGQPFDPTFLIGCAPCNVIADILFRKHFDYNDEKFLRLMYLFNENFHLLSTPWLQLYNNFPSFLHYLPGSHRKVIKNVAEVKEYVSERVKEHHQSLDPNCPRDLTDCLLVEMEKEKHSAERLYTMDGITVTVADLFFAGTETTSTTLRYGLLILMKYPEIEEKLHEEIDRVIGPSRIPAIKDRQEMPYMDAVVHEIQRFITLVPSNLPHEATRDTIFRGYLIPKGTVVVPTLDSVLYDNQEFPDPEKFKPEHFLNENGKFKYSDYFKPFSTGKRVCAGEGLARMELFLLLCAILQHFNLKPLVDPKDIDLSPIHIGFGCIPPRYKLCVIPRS
Experimental: as §5, §6

[11] = biological target: T3, CYP2D6 (Homo sapiens, UniProt P10635); assay: in vitro; format: in vitro ADME; settings: both sexes, microsomes, read-out: % Inhibition 2D6
T3 construct: using pooled male and female human liver microsomes; from tissue; host or cells: pooled human liver microsomes
Experimental: as §5, §6

[12] = biological target: T4, CYP2B6 (Homo sapiens, UniProt P20813); assay: in vitro; format: in vitro ADME; settings: both sexes, microsomes, read-out: % Inhibition 2B6
T4 construct: using pooled male and female human liver microsomes; from tissue; host or cells: pooled human liver microsomes
T4 sequence (P20813 whole entry): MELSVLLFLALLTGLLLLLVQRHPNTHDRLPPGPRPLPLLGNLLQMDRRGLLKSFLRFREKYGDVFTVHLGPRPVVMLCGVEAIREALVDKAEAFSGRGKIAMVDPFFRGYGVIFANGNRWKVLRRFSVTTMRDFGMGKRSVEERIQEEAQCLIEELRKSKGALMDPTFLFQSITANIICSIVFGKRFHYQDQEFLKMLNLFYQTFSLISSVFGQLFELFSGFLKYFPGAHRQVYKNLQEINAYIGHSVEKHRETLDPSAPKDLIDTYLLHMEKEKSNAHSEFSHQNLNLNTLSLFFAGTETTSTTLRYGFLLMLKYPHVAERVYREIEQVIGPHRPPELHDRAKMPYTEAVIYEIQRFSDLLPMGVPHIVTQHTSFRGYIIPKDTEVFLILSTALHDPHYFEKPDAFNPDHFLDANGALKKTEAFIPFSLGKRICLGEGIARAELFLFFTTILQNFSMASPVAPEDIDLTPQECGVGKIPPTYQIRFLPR
Experimental: as §5, §6

[13] = biological target: T5, CYP2A6 (Homo sapiens, UniProt P11509); assay: in vitro; format: in vitro ADME; settings: both sexes, microsomes, read-out: % Inhibition 2A6
T5 construct: using pooled male and female human liver microsomes; from tissue; host or cells: pooled human liver microsomes
T5 sequence (P11509 whole entry): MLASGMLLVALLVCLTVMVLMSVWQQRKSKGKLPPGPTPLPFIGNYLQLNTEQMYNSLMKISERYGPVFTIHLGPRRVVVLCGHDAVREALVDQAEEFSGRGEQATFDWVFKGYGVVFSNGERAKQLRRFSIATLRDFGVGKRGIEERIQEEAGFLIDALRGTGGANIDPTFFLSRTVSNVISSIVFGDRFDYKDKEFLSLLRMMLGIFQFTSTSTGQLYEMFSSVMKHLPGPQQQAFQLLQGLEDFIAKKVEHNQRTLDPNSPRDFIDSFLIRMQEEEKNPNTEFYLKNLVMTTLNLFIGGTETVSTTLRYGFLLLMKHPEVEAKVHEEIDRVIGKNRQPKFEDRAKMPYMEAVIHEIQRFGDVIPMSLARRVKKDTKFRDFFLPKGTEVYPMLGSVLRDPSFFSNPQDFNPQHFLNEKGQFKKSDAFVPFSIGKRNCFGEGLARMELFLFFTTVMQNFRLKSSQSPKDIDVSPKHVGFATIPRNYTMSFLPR
Experimental: as §5, §6

[14] = biological target: T6, CYP2C8 (Homo sapiens, UniProt P10632); assay: in vitro; format: in vitro ADME; settings: both sexes, microsomes, read-out: % Inhibition 2C8
T6 construct: using pooled male and female human liver microsomes; from tissue; host or cells: pooled human liver microsomes
T6 sequence (P10632 whole entry): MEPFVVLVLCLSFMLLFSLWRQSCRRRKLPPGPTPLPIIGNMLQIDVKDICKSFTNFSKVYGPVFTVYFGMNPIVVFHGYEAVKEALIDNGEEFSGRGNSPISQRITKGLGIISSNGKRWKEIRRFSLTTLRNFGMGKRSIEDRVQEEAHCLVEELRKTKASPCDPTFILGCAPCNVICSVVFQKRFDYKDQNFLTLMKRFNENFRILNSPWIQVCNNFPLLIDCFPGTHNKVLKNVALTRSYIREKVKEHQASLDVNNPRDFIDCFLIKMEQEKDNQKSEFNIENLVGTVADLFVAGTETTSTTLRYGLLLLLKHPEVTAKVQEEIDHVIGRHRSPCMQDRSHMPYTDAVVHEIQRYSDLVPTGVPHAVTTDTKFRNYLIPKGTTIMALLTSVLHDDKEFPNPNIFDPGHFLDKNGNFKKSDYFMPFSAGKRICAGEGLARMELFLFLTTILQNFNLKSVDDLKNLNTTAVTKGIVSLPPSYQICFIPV
Experimental: as §5, §6

[15] = biological target: T7, CYP1A2 (Homo sapiens, UniProt P05177); assay: in vitro; format: in vitro ADME; settings: both sexes, microsomes, read-out: % Inhibition 1A2
T7 construct: using pooled male and female human liver microsomes; from tissue; host or cells: pooled human liver microsomes
T7 sequence (P05177 whole entry): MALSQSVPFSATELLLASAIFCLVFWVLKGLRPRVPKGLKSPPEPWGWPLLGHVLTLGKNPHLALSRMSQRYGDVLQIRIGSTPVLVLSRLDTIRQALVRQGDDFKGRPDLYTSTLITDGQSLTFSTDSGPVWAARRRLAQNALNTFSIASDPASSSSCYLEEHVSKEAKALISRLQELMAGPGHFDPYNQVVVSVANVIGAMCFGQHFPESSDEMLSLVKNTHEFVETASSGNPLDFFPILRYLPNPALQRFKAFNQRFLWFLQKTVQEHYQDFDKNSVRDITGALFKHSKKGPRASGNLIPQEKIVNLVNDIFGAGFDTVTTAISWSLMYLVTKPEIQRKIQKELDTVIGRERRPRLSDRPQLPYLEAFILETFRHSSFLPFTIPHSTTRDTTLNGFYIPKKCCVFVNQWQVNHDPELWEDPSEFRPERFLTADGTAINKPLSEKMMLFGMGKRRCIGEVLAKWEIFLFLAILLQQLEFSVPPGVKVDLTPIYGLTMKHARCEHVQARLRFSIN
Experimental: as §5, §6

[16] = biological target: T8, CYP2C19 (Homo sapiens, UniProt P33261); assay: in vitro; format: in vitro ADME; settings: both sexes, microsomes, read-out: % Inhibition 2C19
T8 construct: using pooled male and female human liver microsomes; from tissue; host or cells: pooled human liver microsomes
Experimental: as §5, §6

[17] = biological target: T9, CYP3A4 (Homo sapiens, UniProt P08684); assay: Inhibition of CYPs in human liver microsomes, CYP3A4; format: in vitro ADME; settings: for inhibition at 10 µM: both sexes, human, microsomes
T9 construct: using pooled male and female human liver microsomes; from tissue; host or cells: pooled human liver microsomes
T9 sequence (P08684 whole entry): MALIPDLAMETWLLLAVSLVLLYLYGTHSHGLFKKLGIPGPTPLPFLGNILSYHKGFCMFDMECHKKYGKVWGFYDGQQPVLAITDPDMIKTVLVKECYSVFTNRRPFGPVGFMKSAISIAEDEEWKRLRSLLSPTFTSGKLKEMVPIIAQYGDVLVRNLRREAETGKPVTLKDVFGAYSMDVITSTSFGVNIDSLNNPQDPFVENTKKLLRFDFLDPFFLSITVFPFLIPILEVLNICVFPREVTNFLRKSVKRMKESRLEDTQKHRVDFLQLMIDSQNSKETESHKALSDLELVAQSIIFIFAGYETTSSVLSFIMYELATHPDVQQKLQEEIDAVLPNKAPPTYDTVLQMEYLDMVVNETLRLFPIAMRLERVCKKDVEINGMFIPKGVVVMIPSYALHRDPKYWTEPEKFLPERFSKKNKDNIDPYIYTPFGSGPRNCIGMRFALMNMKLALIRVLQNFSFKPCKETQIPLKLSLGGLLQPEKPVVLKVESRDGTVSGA
Experimental: as §5, §6

[18] = Metabolic stability in human liver microsomes; settings: both, pH 7.4
[19] = tested on: M. tuberculosis constitutively expressing the luxABCDE operon; assay: microbe, parasite or virus in culture; format: cell-based
[20] = biological target: T10, hERG (Homo sapiens, UniProt Q12809); assay: hERG assay (hERG currents in HEK 293 cells); format: cell-based
T10 construct: expressed in transfected cells
T10 sequence (Q12809 whole entry): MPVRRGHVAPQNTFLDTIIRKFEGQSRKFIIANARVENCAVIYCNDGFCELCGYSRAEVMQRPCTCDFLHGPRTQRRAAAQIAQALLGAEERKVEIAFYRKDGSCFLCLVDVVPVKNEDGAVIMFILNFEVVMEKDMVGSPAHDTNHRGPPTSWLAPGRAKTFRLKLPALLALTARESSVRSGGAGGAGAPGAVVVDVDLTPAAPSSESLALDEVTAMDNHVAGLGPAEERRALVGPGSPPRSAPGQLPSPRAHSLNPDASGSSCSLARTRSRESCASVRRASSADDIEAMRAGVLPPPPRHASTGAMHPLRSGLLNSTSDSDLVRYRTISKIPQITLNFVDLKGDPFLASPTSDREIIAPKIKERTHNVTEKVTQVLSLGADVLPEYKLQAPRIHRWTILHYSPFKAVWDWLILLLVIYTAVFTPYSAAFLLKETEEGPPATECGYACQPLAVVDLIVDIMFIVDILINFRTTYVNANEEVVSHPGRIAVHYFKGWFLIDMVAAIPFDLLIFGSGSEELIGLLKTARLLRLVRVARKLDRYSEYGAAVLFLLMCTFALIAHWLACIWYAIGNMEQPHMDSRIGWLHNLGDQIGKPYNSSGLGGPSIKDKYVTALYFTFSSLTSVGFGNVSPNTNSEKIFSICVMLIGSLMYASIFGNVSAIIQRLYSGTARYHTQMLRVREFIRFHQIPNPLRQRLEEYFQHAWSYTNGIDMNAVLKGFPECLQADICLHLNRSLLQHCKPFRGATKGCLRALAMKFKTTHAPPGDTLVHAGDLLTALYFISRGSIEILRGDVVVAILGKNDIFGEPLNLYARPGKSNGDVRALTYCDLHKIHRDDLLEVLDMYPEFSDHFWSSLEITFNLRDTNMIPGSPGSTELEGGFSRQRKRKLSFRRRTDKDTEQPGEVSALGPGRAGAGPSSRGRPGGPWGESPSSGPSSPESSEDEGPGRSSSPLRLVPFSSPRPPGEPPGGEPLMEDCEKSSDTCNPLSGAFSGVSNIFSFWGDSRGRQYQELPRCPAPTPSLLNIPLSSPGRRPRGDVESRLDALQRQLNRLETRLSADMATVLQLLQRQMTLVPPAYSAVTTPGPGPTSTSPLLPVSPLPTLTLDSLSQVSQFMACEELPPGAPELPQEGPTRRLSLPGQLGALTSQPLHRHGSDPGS
Experimental: hERG stably expressed HEK 293 cells were seeded at 5×10^5 cells/per 6 cm cell culture dish and induced with doxycycline at 1 μg/mL for 48 hours. Compound at the final concentrations of 30, 10, 3.33, 1.11 and 0.37 μM was applied to the cells accumulatively, post-compound hERG currents were recorded, and IC50 was calculated. Dofetilide was used as a positive control.
To predict the potential cardiotoxic effects of 6-azastroids, human ether-a-go-go related gene (hERG) assay was applied to 100, 107 and 114 (Table 9). Cytotoxicity of 107 was also assessed (Table 10).

[21] = in vitro; settings: both, human, microsomes, pH 7.4
[22] = in vitro; format: cell-based; settings: human; remark: listed apart in the source
Experimental: as §4

[23] = in vitro; format: cell-based; settings: human; remark: listed apart in the source
Experimental: as §4

[24] = Pharmacokinetics and bioavailability in plasma; settings: male, CD-1, mouse
[25] = in vivo; settings: male, CD-1, mouse; remark: listed apart in the source
[26] = in vitro; format: cell-based; settings: human; remark: listed apart in the source
Experimental: as §4

With `COc1nc(OC(F)(F)F)c(NC(=O)C2CCC3C4CN(C(=O)OC(C)(C)C)C5=CC(=O)CC[C@]5(C)C4CC[C@]23C)cc1Br` (stereo partly drawn) [Compound 107] the efflux ratio at 2 h, 5 μM ([1]; Caco-2, pH 7.4, Efflux Ratio) was > 1.06, the recovery at 2 h, 5 μM ([1]; Caco-2, pH 7.4, Recovery (%) BL-AP) was 63.4% and the “Efflux Ratio” value [2] was 0.71. The “Recovery (%) BL-AP” value [2] was 58.07%, the IC50 at 3 days [3] was > 30 µM and the “t1/2 Lung PO” value ([4]; PO 5 mg/kg, lung, 5 mg/kg) was 5.82 h. For the same compound, the half-life ([4]; male, CD-1, mouse, lung, iv, 1 mg/kg, t1/2 Lung IV, IV 1 mg/kg) was 6.88 h, the half-life ([4]; male, CD-1, mouse, lung, po, 5 mg/kg, t1/2 Lung PO, PO 5 mg/kg) was 5.8 h and the Kp ([4]; male, CD-1, mouse, lung/plasma, po, 5 mg/kg) was 1.74. The “Remaining Percentage with NADPH, 0 min” value ([5]; 0 h) was 100.00%, the “Remaining Percentage with NADPH, 15 min” value ([5]; 0.25 h) was 93.28% and the “Remaining Percentage with NADPH, 30 min” value ([5]; 0.5 h) was 79.18%. The “Remaining Percentage with NADPH, 45 min” value ([5]; 0.75 h) was 71.86%, the “Remaining Percentage with NADPH, 60 min” value ([5]; 1 h) was 65.13% and the MBC [6] was 3 µM. For the same compound, the half-life [7] was ~7 h, the Tmax ([7]; po, 5 mg/kg) was 1 h and the “Isoniazid MIC shift” value [8] was “++ (4-8-fold ++)”. The inhibition at 10 µM [9] was 33.1%, the inhibition at 10 µM [10] was 0% and the inhibition at 10 µM [11] was 4.4%. It also gave an inhibition at 10 µM [12] of 0%, an inhibition at 10 µM [13] of 16.5% and an inhibition at 10 µM [14] of 39.7%. For the same compound, the inhibition at 10 µM [15] was 0%, the inhibition at 10 µM [16] was 65.3% and the inhibition at 10 µM ([17]; 107 at 10 μM, either midazolam or testosterone as substrate, read-out: inhibition of CYP 3A4) was 30%. For the same compound, the inhibition at 10 µM ([17]; at 10 μM, midazolam as substrate, read-out: % Inhibition 3A4 (midazolam)) was 30.4%, the inhibition at 10 µM ([17]; at 10 μM, testosterone as substrate, read-out: % Inhibition 3A4 (testosterone)) was 30.5% and the IC50 ([17]; both substrates (midazolam, testosterone), tested 10 nM to 50 μM, read-out: CYP 3A4 IC50) was > 50 µM. For the same compound, the half-life at 2 μM [18] was 1.54 h, the MIC ([19]; Mycobacterium tuberculosis, INH with 15 μM 6-azasteroid, read-out: LORA MIC of INH) was 0.75 µM and the “activity under low oxygen conditions” value ([19]; in combination with isoniazid) was “active”. For the same compound, the “hERG inhibition” value ([20]; at 30 μM) was “No hERG inhibition was observed”, the IC50 ([20]; hERG stably expressed HEK 293 cells) was > 30 µM and the inhibition at 30 mM ([20]; human, HEK 293 cells stably expressing hERG, at 30 mM) was 34.1%. For the same compound, the CLint scaled at 2 μM [21] was 18.8 mL/min/kg, the microsomal CLint at 2 μM [21] was 15 µL/min/mg and the IC50 at 3 days [22] was > 30 µM. The IC50 at 3 days [23] was > 30 µM, the half-life ([24]; iv, 1 mg/kg) was 6.75 h and the half-life ([24]; po, 5 mg/kg) was 4.98 h. The Tmax ([25]; iv, 1 mg/kg) was 0.0833 h, the Tmax ([25]; po, 5 mg/kg) was 1 h and the IC50 at 3 days [26] was > 30 µM.
